Measured values as given in paper PMC12587574, “Mass balance, pharmacokinetics, metabolism, and excretion of radiolabeled acoziborole, a potential novel treatment for human African trypanosomiasis, following single microtracer oral dose to humans” (Antimicrobial Agents and Chemotherapy, 2025).
Values joined by “and” are separate entries in the source; they are usually repeats but may differ in a detail not shown here. Identical values can stand only once.

Test: Excretion and mass balance of total radioactivity in urine and feces (AMS)
Format: in vivo, human
Description: Urine samples were collected before IP administration (single urine void) and then during intervals of 0–6, 6–12, 12–24, 24–48, 48–72, 72–96, 96–120, 120–168, 168–192, 192–216, and 216–240 h post-dose and for the additional 48-h collection period starting on Day 15 post-dose, that is, 336–384 h. Samples were acidified with citric acid to avoid acoziborole degradation and were refrigerated until the end of the block collection periods. The total weight and volume of urine were then recorded. At the end of each collection period, two aliquots of acidified urine (20 mL) were taken from the sample and stored in polypropylene tubes at −20°C until further analysis for total radioactivity. Two aliquots of 1 mL acidified urine were collected into tubes containing bovine serum albumin in aqueous solution (to avoid non-specific adsorption of acoziborole) and NaCl for acoziborole and SCYX-3109 assays. Urine samples for metabolite profiling were pooled for each participant according to the time intervals reported above, from 0 to 240 h.
Feces were collected before dosing and at block intervals of 0–6, 6–12, 12–24, 24–48, 48–72, 72–96, 96–120, 120–168, and 168–240 h post-dose and for five additional 48-h home collection periods starting on Days 15, 29, 59, 89, and 119. At the end of each collection period, a portion of the sample (50 g) was retained and stored at approximately −20°C until analyzed. The remaining fecal homogenate was combined with that collected at the end of each time interval and stored at approximately −20°C.
TNO (Leiden, the Netherlands) performed the analysis of total radioactivity and the metabolite profiling and identification. All blood, plasma, urine, and fecal homogenate samples were analyzed for total radioactivity by accelerator mass spectrometry (AMS). AMS analysis was performed on a 1 MV multi-element AMS, model 4110 Bo, high voltage engineering (software: AMS 155), using Australian National University (ANU) sucrose-8542 (C12H22O11) with a certified ^14C/^12C isotope ratio ([10]) as the system suitability test sample and [^14C]-paracetamol as an AMS quality check sample.
For each (diluted) sample, 5 µL blood, 5 µL plasma, 15 µL urine, or 30 mg fecal homogenate prepared in 1% CMC solution (1% CMC solution:feces ratio of 4:1) were transferred to tin foil cups. The samples were dried under a stream of nitrogen and subsequently placed in the elemental analyzer (EA, Vario Micro, Elementar, Germany), which acts as an autosampler and combustion device for the AMS. Single samples of blood, plasma, and urine were analyzed. Fecal homogenates were analyzed in triplicate, and the averaged value was reported. Total radioactivity in plasma and blood was expressed as ng equivalents (Eq) of acoziborole/mL. The LLOQ was 47.3 ngEq/mL in plasma (1.51 mBq/mL), 165.4 ngEq/mL in blood (5.28 mBq/mL), 33.8 ngEq/mL in urine (1.08 mBq/mL), and 87.1 ngEq/mL in feces (2.78 mBq/mL).
Blood-to-plasma ratio was calculated based on Cmax and AUC values. For total radioactivity excreted in urine, feces, and both combined, the following parameters were calculated: total amount of total radioactivity excreted over the time interval between t1 and t2 (Aet1−t2), Aet1−t2 expressed as a percentage of the radioactive dose administered (%Aet1−t2), CumAe, and Cum%Ae. For CumAe calculation, the recovery of total radioactivity during WinNonlin time intervals in which urine and feces were not collected was estimated using the area under the excretion rate-time curve from the end of the preceding collection interval to the start of the subsequent collection interval.

[1] = 960 mg single oral dose, N = 6, mean and SD
[2] = 960 mg single oral dose, N = 6, mean and SD, listed as [^14C]-acoziborole
[3] = t set to 1440 h (60 days), N = 6, mean and SD
[4] = t set to 1440 h (Day 60), N = 6, mean and SD, listed as [^14C]-acoziborole

## CC1(C)OB(O)c2cc(NC(=O)c3ccc(F)cc3C(F)(F)F)ccc21 [acoziborole]
[1]
  Cum%Ae0-240h dose, total radioactivity recovered (urine and faeces): 58.6 ± 8.6%
  Cum%Ae0-384h dose, total radioactivity recovered (urine and faeces): 70.8 ± 8.1%
  CumAe0-240h, total radioactivity in faeces: 488.8 ± 84.8 mgEq
  CumAe0-240h, total radioactivity in urine: 74.0 ± 18.5 mgEq
  CumAe0-240h, total radioactivity recovered (urine and faeces): 562.9 ± 82.8 mgEq
  CumAe0-384h, total radioactivity in faeces: 574.9 ± 81.4 mgEq
  CumAe0-384h, total radioactivity in urine: 104.6 ± 28.9 mgEq
  CumAe0-384h, total radioactivity recovered (urine and faeces): 679.6 ± 77.5 mgEq
[2]
  Cum%Ae0-240h dose, total radioactivity in faeces: 50.9 ± 8.8%
  Cum%Ae0-240h dose, total radioactivity in urine: 7.7 ± 1.9%
  Cum%Ae0-384h dose, total radioactivity in faeces: 59.9 ± 8.5%
  Cum%Ae0-384h dose, total radioactivity in urine: 10.9 ± 3.0%
Between Days 59 and 61 (up to 1,440 h)
  increment in excretion of total radioactivity: < 1%
Fasting condition, assuming gastrointestinal transit time of approximately 3 days
  absorbed fraction, estimated: ≥ 70 % of the dose
Over the total 1,392 h, CV% 5.5%
  geometric mean recovery of total radioactivity in urine and feces: 87.2%
[3]
  CumAe0-t, total radioactivity in faeces: 712.1 ± 56.4 mgEq
  CumAe0-t, total radioactivity recovered (urine and faeces): 838.4 ± 48.9 mgEq
[4]
  Cum%Ae0-t dose, total radioactivity in faeces: 74.2% and 74.2 ± 5.9%
  Cum%Ae0-t dose, total radioactivity recovered (urine and faeces): 87.3% and 87.3 ± 5.1%
Urine collection limited to 384 h, N = 6, mean and SD
  CumAe0-t, total radioactivity in urine: 104.6 ± 28.9 mgEq
Urine collection limited to 384 h, N = 6, mean and SD, listed as [^14C]-acoziborole
  Cum%Ae0-t dose, total radioactivity in urine: 10.9% and 10.9 ± 3.0%
